SMILES strings stand for the structures.

Series [1] deals with irs1SF cells (XRCC3 deficient, deficient in HR). Kind of series: Colony outgrowth assay, irs1SF cells. The class given is cell-based, Chinese hamster. Conditions: defective in XRCC3, FIG. 1. How it is done: (§1) 500 cells suspended in medium were plated onto a Petri dish 4 hours prior to the addition of 3-AB, ISQ or NU1025. ISQ and NU1025 were dissolved in DMSO to a final concentration of 0.2% in treatment medium. 7-12 days later, when colonies could be observed, these colonies were fixed and stained with methylene blue in methanol (4 g/l). Colonies consisting of more than 50 cells were subsequently counted.

The subject of series [2] is CXR3 cells (irs1SF complemented with XRCC3). Kind of series: Colony outgrowth assay, CXR3 cells. Type of series: cell-based, Chinese hamster. Conditions: CXR3 versus irs1SF; FIG. 1. How it is done:
as §1

The test system of series [3] is irs1X2.2 cells (irs1 complemented with XRCC2). The series can be described thus: Colony outgrowth assay, irs1X2.2 cells. The class given is cell-based, Chinese hamster. As to conditions: irs1X2.2 versus irs1; FIG. 1. How it is done: as §1
In series [4] the test system is irs1 cells (XRCC2 deficient, deficient in HR). The series can be described thus: Colony outgrowth assay, irs1 cells. Conditions: irs1, defective in XRCC2; FIG. 1. The class given is cell-based, Chinese hamster. How it is done: as §1
Series [5] deals with PARP. Kind of series: PARP activity assay by level of free NAD(P)H (WST-8). As to conditions: FIG. 7F; hydroxyurea 0.5 mM, thymidine 10 mM. Type of series: cell-based. On the procedure: A water-soluble tetrazolium salt (5 mM WST-8) was used to monitor the amount of NAD(P)H through its reduction to a yellow coloured formazan dye[43]. 5000 cells were plated in at least triplicate into wells of a 96 well plate and cultured in 100 μl normal growth media for 4 h at 37° C. CK8 buffer (Dojindo Molecular Technology, Gaithersburg, USA), containing WST-8, was then added either with or without treatment with DNA damaging agents at concentrations indicated. Reduction of WST-8 in the presence of NAD(P)H was determined by measuring visible absorbance (OD450) every 30 min. A medium blank was also prepared containing just media and CK8 buffer. Changes in NAD(P)H levels were calculated by comparing the absorbance of wells containing cells treated with DNA damaging agents and those treated with DMSO alone. Alternately relative levels of NAD(P)H in different cells lines were calculated after 4 h incubation in CK8 buffer.
On the technique in general: Tetrazolium assays rely on reduction of a dye to a coloured formazan, in cell work by metabolically active cells.

Series [6] relates to V-C8+B2 cells. Kind of series: RAD51 foci immunofluorescence, V-C8+B2 cells. The class given is cell-based, Chinese hamster. Conditions: 24-hour treatment, 10 μM, t-test p<0.05, FIG. 5D. On the procedure:
(§2) Cells were plated onto coverslips 4 h prior to 24-h treatments as indicated. Following treatments the medium was removed and coverslips rinsed once in PBS at 37° C. and fixed as described elsewhere. The primary antibodies and dilutions used in this study were; rabbit polyclonal anti PAR (Trevigen; 1:500), goat polyclonal anti Rad51 (C-20, Santa Cruz; 1:200) and rabbit polyclonal anti Rad51 (H-92, Santa Cruz; 1:1000). The secondary antibodies were Cy-3-conjugated goat anti-rabbit IgG antibody (Zymed; 1:500), Alexa 555 goat anti-rabbit F(ab′)2IgG antibody (Molecular Probes; 1:500), Alexa 546 donkey anti-goat IgG antibody (Molecular Probes; 1:500) and Alexa 488 donkey anti-rabbit IgG antibody (Molecular Probes; 1:500). Antibodies were diluted in PBS containing 3% bovine serum albumin. DNA was stained with 1 μg/ml To Pro (Molecular Probes). Images were obtained with a Zeiss LSM 510 inverted confocal microscope using planapochromat 63X/NA 1.4 oil immersion objective and excitation wavelengths 488, 546 and 630 nm. Through focus maximum projection images were acquired from optical sections 0.50 μm apart and with a section thickness of 1.0 μm. Images were processed using Adobe PhotoShop (Abacus Inc). At least 300 nuclei were counted on each slide and those containing more than 10 RAD51 foci or sites of PARP activity were classified as positive.

Series [7] deals with V-C8+B2 cells. The series can be described thus: Survival on co-treatment with replication inhibitors and NU1025. The class given is cell-based, Chinese hamster. Conditions: co-treatment with NU1025 (10 μM). How it is done:
as §1

In series [8] the test system is BRCA2 deficient V-C8 cells. Kind of series: RAD51 foci immunofluorescence, V-C8 cells. Type of series: cell-based, Chinese hamster. As to conditions: 24-hour treatment, 10 μM, FIG. 5D. On the procedure:
as §2

Series [9] deals with MDA-MB-231 (mutated p53) breast cancer cells depleted of BRCA2. Kind of series: Colony outgrowth of siRNA-treated MDA-MB-231 cells. As to conditions: MDA-MB-231, BRCA2 depleted with a mixture of BRCA2 siRNA; FIG. 4. The class given is cell-based. On the procedure: 500 cells suspended in medium were plated onto a Petri dish 4 hours prior to the addition of 3-AB, ISQ or NU1025. ISQ and NU1025 were dissolved in DMSO to a final concentration of 0.2% in treatment medium. 7-12 days later, when colonies could be observed, these colonies were fixed and stained with methylene blue in methanol (4 g/l). Colonies consisting of more than 50 cells were subsequently counted. Predesigned BRCA2 SMARTpool and scrambled siRNAs were purchased (Dharmacon, Lafayette, Colo.). 10000 cells seeded onto 6 well plates and left over night before transfected with 100 nM siRNA using Oligofectamine Reagent (Invitrogen) according to manufacturers instructions. Cells were then cultured in normal growth media for 48 h prior to trypsinisation and replating for toxicity assays. Suppression of BRCA2 was confirmed by Western blotting (as described previously) of protein extracts treated with siRNA with an antibody against BRCA2 (Oncogene, Nottingham, UK).

In series [10] the test system is VC8 cells. Kind of series: Apoptosis experiments (annexin-V/PI flow cytometry). Type of series: cell-based, Chinese hamster. Conditions: 72 hours following exposure; FIG. 3. On the procedure: 0.25×10^6 cells were plated onto Petri dishes and grown for 4 hours before treatment with NU1025. After 72 hours, cells were trypsinized and resuspended with medium containing any floating cells from that sample. The cells were pelleted by centrifugation and resuspended for apoptosis analysis with FITC-conjugated annexin-V and propidium iodine (PI) (ApoTarget, Biosource International) according to manufacturer's protocol. Samples were analysed by flow cytometry (Becton-Dickenson FACSort, 488 nm laser), and percentage of apoptotic cells was determined by the fraction of live cells (PI-negative) bound with FITC-conjugated annexin-V.

The test system of series [11] is V79 cells. Kind of series: Pulse-field gel electrophoresis for DSBs, V79 cells. The class given is cell-based, Chinese hamster. Conditions: highly toxic levels of NU1025 (0.1 mM, 24-hour), FIG. 5A. How it is done: (§3) 1.5×10^6 cells were plated onto 100 mm dishes and allowed 4 h for attachment. […] These inserts were incubated as described elsewhere (8) and separated by pulse-field gel electrophoresis for 24 h (BioRad; 120° angle, 60 to 240 s switch time, 4 V/cm). The gel was subsequently stained with ethidium bromide for analysis.

The subject of series [12] is MCF7 (wild-type p53) breast cancer cells depleted of BRCA2. The series can be described thus: Colony outgrowth of siRNA-treated MCF-7 cells. Type of series: cell-based. Conditions: MCF7, BRCA2 depleted with a mixture of BRCA2 siRNA; FIG. 4. On the procedure:
as §1
Predesigned BRCA2 SMARTpool and scrambled siRNAs were purchased (Dharmacon, Lafayette, Colo.). 10000 cells seeded onto 6 well plates and left over night before transfected with 100 nM siRNA using Oligofectamine Reagent (Invitrogen) according to manufacturers instructions. Cells were then cultured in normal growth media for 48 h prior to trypsinisation and replating for toxicity assays. Suppression of BRCA2 was confirmed by Western blotting (as described previously) of protein extracts treated with siRNA with an antibody against BRCA2 (Oncogene, Nottingham, UK).

For series [13], the system named is VC8#13 cells (functional BRCA2 gene on chromosome 13). Kind of series: Colony outgrowth assay, VC8#13 cells. Type of series: cell-based, Chinese hamster. Conditions: BRCA2 on chromosome 13 (VC8#13); FIG. 2. On the procedure:
as §1

Series [14] has as its system VC8+B2 cells (functional BRCA2 gene on overexpression vector). The series can be described thus: Colony outgrowth assay, VC8+B2 cells. Type of series: cell-based, Chinese hamster. Conditions: FIG. 2. How it is done: as §1
In series [15] the test system is BRCA2 deficient cells (VC8). Kind of series: Colony outgrowth assay, VC8 cells. The class given is cell-based, Chinese hamster. On the procedure:
as §1

Series [16] concerns V-C8 cells. Kind of series: Pulse-field gel electrophoresis for DSBs, V-C8 cells. The class given is cell-based, Chinese hamster. As to conditions: highly toxic levels of NU1025 (0.1 mM, 24-hour), FIG. 5A. How it is done: as §3
Series [17] has as its system V79 hamster cells. Kind of series: PAR polymer staining (sites of PARP activity). The class given is cell-based. As to conditions: V79 cells treated for 24 hours; FIG. 7C. How it is done: as §2

On to `NC(=O)c1cccc(N)c1` [3-AB, 3-aminobenzamide], for which the “sensitivity to the toxic effect (survival)” value (from here on “sensitivity … (survival)”) in [1] and in series [4] was “very sensitive” throughout. The “sensitivity after introduction of functional XRCC3 gene” value (“sensitivity … of functional XRCC3 gene” for short) in series [2] is “corrected”. Further, the “sensitivity after introduction of functional XRCC2 gene” value (“sensitivity … of functional XRCC2 gene” for short) in series [3] was “corrected”.
Consider `Oc1cccc2c(O)nccc12` [ISQ, 1,5-dihydroxyisoquinoline], for which the “sensitivity … (survival)” value in [1] and in [4] was “very sensitive” throughout. Also, the “sensitivity … of functional XRCC3 gene” value in series [2] is reported as “corrected”. Moreover, in series [3], the “sensitivity … of functional XRCC2 gene” value is given as “corrected”.
`COS(C)(=O)=O` [MMS, Methylmethane sulphonate]: the “activation of PARP and reduction of NAD(P)H levels” value in [5] was “depletes the NAD(P)H levels”.
`Cc1nc2c(O)cccc2c(=O)[nH]1` [NU1025, 8-hydroxy-2-methylquinazolin-4-[3H]one]: the “formation of RAD51 foci” value was “RAD51 foci were indeed induced” in [6] and “unable to form RAD51 foci” in series [8]. The sensitivity to hydroxyurea entry in series [7] (FIG. 7D) is “enhances the sensitivity”. In addition, the sensitivity to thymidine entry in series [7] (FIG. 7E) is “enhances the sensitivity”. For the same compound, the survival entry in series [9] and in series [12] was “profoundly reduced the survival” each time. In [10], the level of apoptosis result is “triggered apoptosis only in VC8 cells”. The “sensitivity … (survival)” value is “very sensitive” in series [1]; “very sensitive” in series [15] (VC8 versus wild type V79Z, FIG. 2); “very sensitive” in series [4]. The “accumulation of DSBs” value in series [11] and in series [16] was “no DSBs were detectable” each time. The “sensitivity … of functional XRCC3 gene” value in series [2] was “corrected”. The “sensitivity after introduction of functional BRCA2 gene” value in [13] and in series [14] was “corrected” in each case. In addition, the “sensitivity … of functional XRCC2 gene” value in series [3] is given as “corrected”. Besides, the “sensitivity to cytotoxicity relative to wild type cells” value in [15] (BRCA2 deficient cells versus wild type cells) amounted to 100 times.
For `NC(=O)NO` [hydroxyurea], the “number of cells containing sites of PARP activity” value in series [17] is “substantial increase”. The “activation of PARP and reduction of NAD(P)H levels” value in series [5] is given as “much slower”.
The matching figures for `Cc1cn([C@H]2C[C@H](O)[C@@H](CO)O2)c(=O)[nH]c1=O` [thymidine]: “substantial increase” and “much slower”.

For the origin of these results see US8859562B2, “Use of RNAI inhibiting PARP activity for the manufacture of a medicament for the treatment of cancer” (The University of Sheffield, priority 2003, dated 2014).
